Test system: not listed separately
Assay: In vivo testing following the procedure of Carter et al.
Conditions: J. Urology 1998, 160, 242-246
Protocol: Following the procedure disclosed by Carter et al., (Carter, A. J., Ballard, S. A., and Naylor, A. M.) in The Journal of Urology 1998, 160, 242-246, compound #8 was tested as active for in vivo activity.

Structure (SMILES) | in vivo activity
CN1CC(=O)N2[C@H](c3ccc4c(c3)OCO4)c3[nH]c4ccccc4c(=O)c3[C@@H]2C1=O [Compound 8, 11-Benzo[1,3]dioxol-5-yl-3-methyl-2,3,4a,11-tetrahydro-10H-3,10,11a-triaza-benzo[b]fluorene-1,4,5-trione] | active

Biological target: PDEV (UniProt O76074)
Assay: In vitro determination of Ki for phosphodiesterase inhibitors (PDEV)
Type: biochemical, rabbit and human tissues
Conditions: 30 nM 3H-cGMP, 30° C. for 90 minutes; Ki is equivalent to the IC50 value
Protocol: Cyclic Nucleotide Phosphodiesterase (PDE) Assay
PDEV was isolated from rabbit and human tissues according to the protocol described by Boolell et al. (Boolell, M., Allen, M. J., Ballard, S. A., Ge[o-Attee, Muirhead, G. J., Naylor, A. M., Osterloh, I. H., and Gingell, C) in International Journal of Impotence Research 1996 8, 47-52 with minor modifications.
Briefly, rabbit or human tissues were homogenized in an ice-cold buffer solution containing 20 mM HEPES (pH 7.2), 0.25M sucrose, 1 mM EDTA, and 1 mM PMSF. The homogenates were centrifuged at 100,000 g for 60 minutes at 4° C. The supernatant was filtered through […] filter and loaded on a Pharmacia Mono Q anion exchange column (1 ml bed volume) that was equilibrated with 20 mM HEPES, 1 mM EDTA and 0.5 mM PMSF. After washing out unbound proteins, the enzymes were eluted with a linear gradient of 100-600 mM NaCl in the same buffer (35 to 50 ml total, depending on the tissue. Enzymes from the skeletal muscle, corpus cavernosum, retina, heart and platelet were eluted with 35, 40, 45, 50, and 50 ml respectively.) The column was run at a flow rate of 1 ml/min and 1 ml fractions were collected. The fractions comprising various PDE activities were pooled separately and used in later studies. […]
In Vitro Determination of Ki for Phosphodiesterase Inhibitors
The assays were adapted to a 96-well format. Phosphodiesterase was assayed in 5 mM MgCl2, 15 mM Tris HCl (pH 7.4), 0.5 mg/ml bovine serum albumin, 30 nM ^3H-cGMP and test compound at various concentrations. The amount of enzyme used for each reaction was such that less than 15% of the initial substrate was converted during the assay period. For all measurements, the test compound was dissolved and diluted in 100% DMSO (2%DMSO in assay). The total volume of the assay was 100 μl. The reaction mixture was incubated at 30° C. for 90 minutes. The reaction was stopped by boiling for 1 minute and then immediately cooled by transfer to an ice bath. To each well was then added 25 μl 1 mg/ml snake venom (Ophiophagus hannah) and the reaction mixture incubating at 30° C. for 10 minute. The reaction was stopped by the addition of 1 ml Bio-Rad AG1-X2 resin slurry (1:3). An aliquot of 200 μl was taken and counted by liquid scintillation.
The % inhibition of the maximum substrate conversion (by the enzyme in the absence of inhibitor) was calculated for each test compound concentration. Using GraphPad Prism's nonlinear regression analysis (sigmoidal dose response), the % inhibition vs log of the test compound concentration was plotted to determine the IC50. Under conditions where substrate concentration<<Km of the enzyme (Km=substrate concentration at which half of the maximal velocity of the enzyme is achieved), Ki is equivalent to the IC50 value.
Following the procedures as described in Examples 10 and 11 herein, representative compounds of the instant invention were tested for PDEV and PDEVI activity. PDEV inhibitory activities for these compounds are presented as Ki values (nM) in the Table 4.

Structure (SMILES) | Ki [nM]
CN1CC(=O)N2[C@@H](c3ccc4c(c3)OCO4)c3[nH]c4ccccc4c(=O)c3[C@H]2C1=O [Compound 3, 11-Benzo[1,3]dioxol-5-yl-3-methyl-2,3,4a,11-tetrahydro-10H-3,10,11a-triaza-benzo[b]fluorene-1,4,5-trione] | 17
CN1CC(=O)N2[C@H](c3ccc4c(c3)CCO4)c3[nH]c4ccccc4c(=O)c3[C@H]2C1=O [Compound 2, 11-(2,3-Dihydro-benzofuran-5-yl)-3-methyl-2,3,4a,11-tetrahydro-10H-3,10,11a-triaza-benzo[b]fluorene-1,4,5-trione] | 69
CN1CC(=O)N2[C@H](c3ccc4c(c3)CCO4)c3[nH]c4ccccc4c(=O)c3[C@@H]2C1=O [Compound 1, 11-(2,3-Dihydro-benzofuran-5-yl)-3-methyl-2,3,4a,11-tetrahydro-10H-3,10,11a-triaza-benzo[b]fluorene-1,4,5-trione] | 7

Further lines, results first:

Ki [nM] | Structure (SMILES)
123 | O=C1[C@H]2c3c([nH]c4ccccc4c3=O)[C@@H](c3ccc4c(c3)OCO4)N2C(=O)CN1Cc1ccccc1 [Compound 5, 11-Benzo[1,3]dioxol-5-yl-3-benzyl-2,3,4a,11-tetrahydro-10H-3,10,11a-triaza-benzo[b]fluorene-1,4,5-trione]
148 | CN1CCC(=O)N2[C@H](c3ccc4c(c3)OCO4)c3[nH]c4ccccc4c(=O)c3[C@@H]2C1=O [Compound 7, 11-Benzo[1,3]dioxol-5-yl-7-methyl-5b,8,9,12-tetrahydro-7H,11H-7,10a,12-triaza-naphtho[2,3-a]azulene-5,6,10-trione]
63 | O=C1[C@H]2c3c([nH]c4ccccc4c3=O)[C@@H](c3ccc4c(c3)OCO4)N2C(=O)CN1Cc1ccccn1 [Compound 10, 11-Benzo{1,3]dioxol-5-yl-3-pyridin-2-ylmethyl-2,3,4a,11-tetrahydro-10H-3,10,11a-triaza-benzo[b]fluorene-1,4,5-trione]
14 | CN1CC(=O)N2[C@H](c3ccc4c(c3)OCO4)c3[nH]c4ccccc4c(=O)c3[C@@H]2C1=O [Compound 8, 11-Benzo[1,3]dioxol-5-yl-3-methyl-2,3,4a,11-tetrahydro-10H-3,10,11a-triaza-benzo[b]fluorene-1,4,5-trione]
48 | CN1CC(=O)N2C(C1=O)c1c([nH]c3ccccc3c1=O)[C@H]2c1ccc2c(c1)OCO2 (stereo in doubt) [Compound 9, 11-Benzo[1,3]dioxol-5-yl-3-methyl-2,3,4a,11-tetrahydro-10H-3,10,11a-triaza-benzo[b]fluorene-1,4,5-trione]
80 | CN1CC(=O)N2[C@@H](c3ccc4c(c3)OCO4)c3[nH]c4ccccc4c(=O)c3[C@@H]2C1=O [Compound 4, 11-Benzo[1,3]dioxol-5-yl-3-methyl-2,3,4a,11-tetrahydro-10H-3,10,11a-triaza-benzo[b]fluorene-1,4,5-trione]

Test system: not given
Assay: not given
Conditions: use of sildenafil; non-selective effects on a variety of tissues; cited from earlier work

Structure (SMILES) | undesirable side effects
CCCc1nn(C)c2c(=O)[nH]c(-c3cc(S(=O)(=O)N4CCN(C)CC4)ccc3OCC)nc12 [sildenafil, 5-[2-ethoxy-5-(4-methylpiperazin-1-ylsulphonyl)phenyl]-1-methyl-3-n-propyl-6,7-dihydro-1H-pyrazolo[4,3-d]pyrimidin-7-one] | headache, flushing and disrupted color vision
